Values quoted from earlier work, collected in patent US5618928A, “Triazenyl-substituted phenyl pyrimidines and their use in therapy” (British Technology Group Limited, priority 1992, dated 1997).

Legend:
[1] = in combination with sulphamethoxazole, AIDS patients; cited from earlier work
[2] = system: dihydrofolate reductase (DHFR); settings: in words, background; cited from earlier work

SMILES | adverse reactions [1] | potency [2] | selectivity [2]
COc1cc(Cc2cnc(N)nc2N)cc(OC)c1OC [trimethoprim] | high percentage of adverse reactions in AIDS patients | – | –
COc1cc(NCc2ccc3nc(N)nc(N)c3c2C)cc(OC)c1OC [trimetrexate] | – | high potency | poor selectivity
